Experimental data: ChEMBL document CHEMBL6109070, “Fatty acid conjugated BimBH3 analogues with d‑amino acid substitution as PTPN1 inhibitors with enhanced activity, biostability and orally available potency for the treatment of diabetes” (Bioorg Med Chem, 2025)

Columns and labels:
[1] = test system: chymotrypsin; assay: Proteolytic stability of compound assessed as chymotrypsin (unknown origin)-mediated drug degradation at 0.6 mM by measuring half life measured after 24 hrs by RP-HPLC analysis; type: ADME; conditions: human
[2] = biological target: T1, Tyrosine-protein phosphatase non-receptor type 1 (Homo sapiens) (UniProt P18031); assay: Binding affinity to PTPN1 (unknown origin) assessed as dissociation rate constant (Koff) by Bio-Layer Interferometric analysis
T1 sequence (whole entry): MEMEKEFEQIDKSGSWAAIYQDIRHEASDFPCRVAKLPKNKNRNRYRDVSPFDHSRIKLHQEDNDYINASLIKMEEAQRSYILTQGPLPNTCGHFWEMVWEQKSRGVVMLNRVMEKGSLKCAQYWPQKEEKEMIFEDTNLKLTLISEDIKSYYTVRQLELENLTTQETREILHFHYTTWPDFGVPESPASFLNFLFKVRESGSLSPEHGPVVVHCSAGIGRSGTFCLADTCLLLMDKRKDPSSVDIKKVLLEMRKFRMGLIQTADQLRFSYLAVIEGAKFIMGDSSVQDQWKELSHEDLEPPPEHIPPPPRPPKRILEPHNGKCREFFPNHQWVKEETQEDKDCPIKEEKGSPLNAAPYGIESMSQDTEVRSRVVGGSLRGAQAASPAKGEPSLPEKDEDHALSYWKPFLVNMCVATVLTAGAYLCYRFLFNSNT

[3] = biological target: T1, Tyrosine-protein phosphatase non-receptor type 1 (Homo sapiens); assay: Binding affinity to PTPN1 (unknown origin) assessed as observed […] rate constant (Kobs) by Bio-Layer Interferometric analysis
[4] = biological target: T2, Tyrosine-protein phosphatase non-receptor type 1 (Homo sapiens, UniProt P18031); assay: Inhibition of recombinant human PTPN1 using p-nitrophenyl phosphate as substrate by spectrophotometric analysis
T2 sequence (P18031 whole entry): T1 sequence (whole entry)

[5] = test system: pepsin; assay: Proteolytic stability of compound assessed as pepsin (unknown origin)-mediated drug degradation at 40 mM by measuring half life measured after 24 hrs by RP-HPLC analysis; type: ADME; conditions: human
[6] = biological target: T2, Tyrosine-protein phosphatase non-receptor type 1; assay: Binding affinity to PTPN1 (unknown origin) assessed as equilibrium dissociation constant (Kd) by Bio-Layer Interferometric analysis
[7] = Stability in rat plasma assessed as half life; type: ADME, cell-free
[8] = test system: proteinase K; assay: Proteolytic stability of compound assessed as proteinase K (unknown origin)-mediated drug degradation at 0.4 mM by measuring half life measured after 24 hrs by RP-HPLC analysis; type: ADME; conditions: human
[9] = biological target: DPP-4 (dipeptidyl peptidase 4) (Homo sapiens, UniProt P27487); assay: Stability of compound assessed as DPP-4 (unknown origin)-mediated drug degradation by measuring half life measured for 10 mins by RP-HPLC analysis; type: ADME
[10] = biological target: T1, Tyrosine-protein phosphatase non-receptor type 1 (Homo sapiens); assay: Binding affinity to PTPN1 (unknown origin) assessed as association rate constant (Kon) by Bio-Layer Interferometric analysis
[11] = test system: Mus musculus; assay: Anti-diabetic activity in male Kunming mouse assessed as reduction in area under the curve of blood glucose at 0.2 microM/Kg, sc measured for 0 to 120 mins by GTT; type: functional; design: scale not given: the % may be the effect or the level left; conditions: time 0-120 min, at 0.2 µmol/kg
[12] = test system: Mus musculus; assay: Anti-diabetic activity in male Kunming mouse assessed as reduction in area under the curve of blood glucose at 40 mg/kg, po measured for 0 to 180 mins by GTT; type: functional; design: scale not given: the % may be the effect or the level left; conditions: time 0-180 min
[13] = test system: Mus musculus; assay: Anti-diabetic activity in male Kunming mouse assessed as reduction in area under the curve of blood glucose at 0.1 microM/Kg, sc measured for 0 to 120 mins by GTT; type: functional; design: scale not given: the % may be the effect or the level left; conditions: time 0-120 min, at 0.1 µmol/kg
[14] = Toxicity in male Kunming mouse assessed as reduction in body weight at 0.2 microM/Kg, sc administered daily for 7 days and measured on day 1; type: organism-based; conditions: in vivo, 24 h, time 1 day
[15] = test system: Mus musculus; assay: Anti-diabetic activity in male Kunming mouse assessed as reduction in area under the curve of blood glucose at 20 mg/kg, po measured for 0 to 180 mins by GTT; type: functional; design: scale not given: the % may be the effect or the level left; conditions: time 0-180 min
[16] = test system: Mus musculus; assay: Anti-diabetic activity in male Kunming mouse assessed as reduction in area under the curve of blood glucose at 10 mg/kg, po measured for 0 to 180 mins by GTT; type: functional; design: scale not given: the % may be the effect or the level left; conditions: time 0-180 min
[17] = Toxicity in male Kunming mouse assessed as change in body weight at 0.2 microM/Kg, sc administered daily for 7 days and measured from day 2 to 7; type: organism-based; conditions: in vivo, 144 h, time 6 day
[18] = test system: Mus musculus; assay: Anti-diabetic activity in male Kunming mouse assessed as reduction in area under the curve of blood glucose at 0.05 microM/Kg, sc measured for 0 to 120 mins by GTT; type: functional; design: scale not given: the % may be the effect or the level left; conditions: time 0-120 min, at 0.05 µmol/kg

Chain of DPP-4 (dipeptidyl peptidase 4) (P27487 whole entry): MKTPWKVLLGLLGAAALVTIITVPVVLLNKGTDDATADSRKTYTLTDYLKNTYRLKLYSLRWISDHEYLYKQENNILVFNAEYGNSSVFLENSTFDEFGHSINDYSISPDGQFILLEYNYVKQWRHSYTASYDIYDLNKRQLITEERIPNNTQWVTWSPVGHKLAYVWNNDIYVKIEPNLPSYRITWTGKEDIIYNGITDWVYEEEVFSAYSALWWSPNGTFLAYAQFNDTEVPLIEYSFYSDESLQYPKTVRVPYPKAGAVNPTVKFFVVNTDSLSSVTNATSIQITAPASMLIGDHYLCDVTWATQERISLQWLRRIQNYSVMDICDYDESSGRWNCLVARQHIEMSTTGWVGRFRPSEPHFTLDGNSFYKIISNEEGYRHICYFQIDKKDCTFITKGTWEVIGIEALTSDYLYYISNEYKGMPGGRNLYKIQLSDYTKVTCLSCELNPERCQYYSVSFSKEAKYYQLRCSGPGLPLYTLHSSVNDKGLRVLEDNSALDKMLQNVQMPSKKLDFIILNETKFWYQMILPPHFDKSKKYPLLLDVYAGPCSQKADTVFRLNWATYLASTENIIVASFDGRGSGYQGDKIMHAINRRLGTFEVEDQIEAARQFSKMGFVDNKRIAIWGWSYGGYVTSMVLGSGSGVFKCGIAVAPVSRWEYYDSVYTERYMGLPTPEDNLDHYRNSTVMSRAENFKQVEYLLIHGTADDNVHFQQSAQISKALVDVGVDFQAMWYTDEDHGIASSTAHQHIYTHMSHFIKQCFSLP

SMILES | half-life at 600 µM [1] [h] | K [2] | Kobs [3] | IC50 [4] [µM] | half-life at 40000 µM [5] [h] | Kd [6] [µM] | half-life [7] [h] | half-life at 400 µM [8] [h] | half-life [9] [h] | K [10] | Activity [11] [%] | Activity [12] [%] | Activity [13] [%] | Activity [14] | Activity [15] [%] | Activity [16] [%] | Activity [17] | Activity [18] [%]
CCCCCCCCCCCCCCCC(=O)N[C@H](C(=O)N[C@@H](C(=O)N[C@@H](CCC(N)=O)C(=O)N[C@@H](CCC(=O)O)C(=O)N[C@@H](CC(C)C)C(=O)N[C@@H](CCCNC(=N)N)C(=O)N[C@@H](CCCNC(=N)N)C(=O)N[C@H](C(=O)NCC(=O)N[C@@H](CC(=O)O)C(=O)N[C@@H](CCC(=O)O)C(=O)N[C@@H](Cc1ccccc1)C(=O)O)[C@@H](C)CC)C(C)C)[C@@H](C)CC | 0.163 | 5.85 10^-3/s | 6.14 10^-3No_unit | 0.805 | 1.17 | 2.11 | 70.7 | 12.3 | 7.12 | 2.78 10^2/Ms |  |  |  |  |  |  |  | 
CCCCCCCCCCCCCCCC(=O)N[C@H](C(=O)N[C@H](CO)C(=O)N[C@@H](CCC(N)=O)C(=O)N[C@@H](CCC(=O)O)C(=O)N[C@@H](CC(C)C)C(=O)N[C@@H](CCCNC(=N)N)C(=O)N[C@@H](CCCNC(=N)N)C(=O)N[C@H](C(=O)NCC(=O)N[C@@H](CC(=O)O)C(=O)N[C@@H](CCC(=O)O)C(=O)N[C@@H](Cc1ccccc1)C(=O)O)[C@@H](C)CC)[C@@H](C)CC |  |  |  | 4.41 |  |  |  |  |  |  |  |  |  |  |  |  |  | 
CCCCCCCCCCCCCCCC(=O)N[C@H](C(=O)N[C@H](CCC(N)=O)C(=O)N[C@@H](CCC(N)=O)C(=O)N[C@@H](CCC(=O)O)C(=O)N[C@@H](CC(C)C)C(=O)N[C@@H](CCCNC(=N)N)C(=O)N[C@@H](CCCNC(=N)N)C(=O)N[C@H](C(=O)NCC(=O)N[C@@H](CC(=O)O)C(=O)N[C@@H](CCC(=O)O)C(=O)N[C@@H](Cc1ccccc1)C(=O)O)[C@@H](C)CC)[C@@H](C)CC |  |  |  | 4.21 |  |  |  |  |  |  |  |  |  |  |  |  |  | 
CCCCCCCCCCCCCCCC(=O)N[C@H](C(=O)N[C@H](Cc1cnc[nH]1)C(=O)N[C@@H](CCC(N)=O)C(=O)N[C@@H](CCC(=O)O)C(=O)N[C@@H](CC(C)C)C(=O)N[C@@H](CCCNC(=N)N)C(=O)N[C@@H](CCCNC(=N)N)C(=O)N[C@H](C(=O)NCC(=O)N[C@@H](CC(=O)O)C(=O)N[C@@H](CCC(=O)O)C(=O)N[C@@H](Cc1ccccc1)C(=O)O)[C@@H](C)CC)[C@@H](C)CC | 2.9 |  |  | 0.871 | 1.14 |  |  | 3.79 |  |  |  |  |  |  |  |  |  | 
CCCCCCCCCCCCCCCC(=O)N[C@H](C(=O)N[C@@H](C)C(=O)N[C@H](CCC(N)=O)C(=O)N[C@@H](CCC(=O)O)C(=O)N[C@@H](CC(C)C)C(=O)N[C@@H](CCCNC(=N)N)C(=O)N[C@@H](CCCNC(=N)N)C(=O)N[C@H](C(=O)NCC(=O)N[C@@H](CC(=O)O)C(=O)N[C@@H](CCC(=O)O)C(=O)N[C@@H](Cc1ccccc1)C(=O)O)[C@@H](C)CC)[C@@H](C)CC | 1.86 |  |  | 0.855 | 1.13 |  |  | 3.21 | 1.42 |  |  |  |  |  |  |  |  | 
CCCCCCCCCCCCCCCC(=O)N[C@H](C(=O)N[C@H](Cc1ccc(O)cc1)C(=O)N[C@@H](CCC(N)=O)C(=O)N[C@@H](CCC(=O)O)C(=O)N[C@@H](CC(C)C)C(=O)N[C@@H](CCCNC(=N)N)C(=O)N[C@@H](CCCNC(=N)N)C(=O)N[C@H](C(=O)NCC(=O)N[C@@H](CC(=O)O)C(=O)N[C@@H](CCC(=O)O)C(=O)N[C@@H](Cc1ccccc1)C(=O)O)[C@@H](C)CC)[C@@H](C)CC | 0.115 | 7.35 10^-5/s | 8.87 10^-3No_unit | 0.461 | 1.78 | 0.447 | 98.6 | 8.66 | 13.6 | 4.4 10^2/Ms |  |  |  |  |  |  |  | 
CCCCCCCCCCCCCCCC(=O)N[C@H](C(=O)N[C@@H](C)C(=O)N[C@@H](CCC(N)=O)C(=O)N[C@@H](CCC(=O)O)C(=O)N[C@@H](CC(C)C)C(=O)N[C@@H](CCCNC(=N)N)C(=O)N[C@H](CCCNC(=N)N)C(=O)N[C@H](C(=O)NCC(=O)N[C@@H](CC(=O)O)C(=O)N[C@@H](CCC(=O)O)C(=O)N[C@@H](Cc1ccccc1)C(=O)O)[C@@H](C)CC)[C@@H](C)CC |  |  |  | 1.64 |  |  |  |  |  |  |  |  |  |  |  |  |  | 
CCCCCCCCCCCCCCCC(=O)N[C@H](C(=O)N[C@H](C)C(=O)N[C@@H](CCC(N)=O)C(=O)N[C@@H](CCC(=O)O)C(=O)N[C@@H](CC(C)C)C(=O)N[C@@H](CCCNC(=N)N)C(=O)N[C@@H](CCCNC(=N)N)C(=O)N[C@H](C(=O)NCC(=O)N[C@@H](CC(=O)O)C(=O)N[C@@H](CCC(=O)O)C(=O)N[C@@H](Cc1ccccc1)C(=O)O)[C@@H](C)CC)[C@@H](C)CC | 1.72 | 1.46 10^-4/s | 6.69 10^-3No_unit | 0.395 | 2.42 | 0.167 | 102 | 15 | 3.61 | 3.27 10^2/Ms |  |  |  |  |  |  |  | 
CCCCCCCCCCCCCCCC(=O)N[C@H](C(=O)N[C@@H](C)C(=O)N[C@@H](CCC(N)=O)C(=O)N[C@@H](CCC(=O)O)C(=O)N[C@@H](CC(C)C)C(=O)N[C@@H](CCCNC(=N)N)C(=O)N[C@@H](CCCNC(=N)N)C(=O)N[C@@H](C(=O)NCC(=O)N[C@@H](CC(=O)O)C(=O)N[C@@H](CCC(=O)O)C(=O)N[C@@H](Cc1ccccc1)C(=O)O)[C@@H](C)CC)[C@@H](C)CC | 0.712 | 2.5 10^-5/s | 3.31 10^-2No_unit | 0.294 | 1.42 | 0.0151 | 101 | 8.87 | 2.87 | 1.65 10^3/Ms | 26.2 | 15.4 | 15.6 | ~ 1 g | 8 | 4.6 | Non-toxic | 7.1
CCCCCCCCCCCCCCCC(=O)N[C@H](C(=O)N[C@@H](C)C(=O)N[C@@H](CCC(N)=O)C(=O)N[C@@H](CCC(=O)O)C(=O)N[C@@H](CC(C)C)C(=O)N[C@@H](CCCNC(=N)N)C(=O)N[C@@H](CCCNC(=N)N)C(=O)N[C@H](C(=O)NCC(=O)N[C@@H](CC(=O)O)C(=O)N[C@@H](CCC(=O)O)C(=O)N[C@@H](Cc1ccccc1)C(=O)O)[C@@H](C)CC)[C@@H](C)CC | 0.556 | 6.65 10^-3/s | 7.3 10^-3No_unit |  | 2.7 | 2.82 | 10.6 | 2.65 | 3.68 | 2.35 10^2/Ms |  |  |  |  |  |  |  | 
CCCCCCCCCCCCCCCC(=O)N[C@H](C(=O)N[C@H](CCCCN)C(=O)N[C@@H](CCC(N)=O)C(=O)N[C@@H](CCC(=O)O)C(=O)N[C@@H](CC(C)C)C(=O)N[C@@H](CCCNC(=N)N)C(=O)N[C@@H](CCCNC(=N)N)C(=O)N[C@H](C(=O)NCC(=O)N[C@@H](CC(=O)O)C(=O)N[C@@H](CCC(=O)O)C(=O)N[C@@H](Cc1ccccc1)C(=O)O)[C@@H](C)CC)[C@@H](C)CC |  |  |  | 2.14 |  |  |  |  |  |  |  |  |  |  |  |  |  | 
